Residues, ends and D or L forms follow the SMILES beside them. *: point of attachment. Palmitoyl = CCCCCCCCCCCCCCCC(=O)* Bounds are passed on as bounds.

The data set is described as follows: Solubility in aqueous Tris-buffer. The format is physicochemical. As to conditions: diluted from ethanol stock, read-out: solubility limit in aqueous Tris-buffer conditions.

Consider `CCCCCCCCCCCCCCCC(=O)N[C@@H](CCC(N)=O)C(=O)N[C@@H](CCCNC(=N)N)C(=O)N[C@@H](Cc1ccccc1)C(=O)N[C@@H](CO)C(=O)N[C@@H](CCCNC(=N)N)C(N)=O` [Pal-QRFSR-NH2, palmitoyl-QRFSR-NH2] (Palmitoyl-QRFSR-NH2), for which the solubility is at most 70 µM.

The record behind these values is patent US20100062052A1, “PEPTIDE-BASED COMPOUNDS AS NEW INHIBITORS OF METALLOECTOPEPTIDASES, COMPOSITIONS COMPRISING SAID COMPOUNDS AND THEIR PHARMACEUTICAL AND COSMETIC USES” (GREENPHARMA, priority 2007, published 2010).
